{"source": "patent US10617763B2", "about": "“Compositions and methods for the treatment of presbyopia” (Presbyopia Therapies, LLC, priority 2013, dated 2020)", "key": {"eye [1]": {"system": "eye", "assay": "Compositions containing mannitol with various nonionic surfactants (Example 15, Table 10)", "design": "species or system human", "details": "in vivo", "excerpt": "Example 15. Use of a Compound Containing Mannitol with Various Nonionic Surfactants Compositions\nOf those tested only Brij® 35 was marginal due to the significant corneal irritation, hyperemia and […] that resulted.\nDuration was excellent for each nonionic surfactant tested."}, "eye [2]": {"system": "eye", "details": "cited from earlier work"}, "[3]": {"assay": "Stability of aceclidine in cold chain storage, HPLC (Example 10)", "type": "physicochemical", "details": "Example 10 composition", "experimental": "Example 10 Stabile Aceclidine Formulations\n20 samples of the above composition were divided evenly and stored at 25° C. and 4° C. Prior to storage, initial concentrations of aceclidine were measured using […] (“HPLC”). The amount of aceclidine in each solution was calculated by the area under the principal peak compared to a reference solution of aceclidine. Samples were then subject to storage for 3 months. Aceclidine measurements were taken at 1, 2 and 3 months."}, "eye [4]": {"system": "eye", "details": "for indoor night vision: pH 7.5; for dimming: pH 7.0", "source_text": "However, because α-2 agonists are shifted to their ionized equilibrium an acidic pH is somewhat offset by the fact such agonists exert greater affect at neutral or alkaline pH. Therefore each α-2 agonist has a preferred pH range depending on its lipophilicity and pKa value when added to the inventive compositions with aceclidine."}, "[5]": {"system": "emmetrope over the age of 45", "assay": "Effects of pilocarpine and aceclidine with or without tropicamide and carrier on near and distance vision (FIG. 1)", "type": "in vivo, human", "excerpt": "Subject is an emmetrope over the age of 45 with a baseline near vision of 20.100 and baseline distance vision of 20.20. Topical administration to the eye of 1% w/v pilocarpine in saline solution results in an improvement of near vision to 20.40 (8a), however this improvement comes at the expense of a reduction in distance vision to 20.100 (8b). […] A proper drug carrier can also have a beneficial effect."}, "eye [6]": {"system": "eye", "assay": "Effect of concentration of aceclidine, brimonidine, guanfacine, fadolmidine, tropicamide and additives (Example 3)", "type": "in vivo, human", "experimental": "All percentages are w/v. Scores for nasal congestion, stinging initial, stinging, 3 min, redness initial, redness 15 min, whitening, pain and overall are out of 4.\n“pt” reflects size of print materials, 4 being equivalent to 20/20 vision and 3 to 20/15 vision.\nD/C stands for discontinued after eye washing due to intolerable stinging.\n(§1) All baseline vision data was based on vision corrected with distance contact lenses.\nAB4T and AB6T were repeated both monocularly and binocularly."}, "eye [7]": {"system": "eye", "assay": "Modulation of aceclidine concentrations in a preferred embodiment (Example 6)", "type": "in vivo, human", "experimental": "Example 6 Modulation of Aceclidine Concentrations in a Preferred Embodiment\nFor 1.35% w/v aceclidine— • Stinging on topical instillation 0.25/4.0 (lasting about 2-5 seconds); • Induced redness at 10 minutes: 1.0 to 1.5/4.0; • Induced redness at 30 minutes: 0.0 to 0.25/4.0; • Comfort: very high. • Wetting: very high, the eye maintaining sensation of improved wetting for most of a 24 hour period after a single topical instillation. • Depth of Focus distance: excellent. • Depth of Focus near: excellent.\nIn testing the above formulations on several subjects it was discovered that there is a slight range in clinical effect depending on the concentration of aceclidine, where 1.35%-1.55% w/v aceclidine is preferred, but for which 1.35% w/v and 1.45% w/v confer the desired benefits on most subjects.\nFurther, it is discovered that the clinical effect of 1.35% w/v aceclidine can be improved when instilled as follows: […]"}, "presbyopic subjects": {"system": "presbyopic subjects", "assay": "Effect of aceclidine on vision of subjects aged 47 to 67 years (Example 1)", "type": "in vivo, human", "details": "for L Post Dist / L Post Near / R Post Dist / R Post Near: Post Gtt 15″; for L Post Dist: left eye distance vision; for L Post Near: left eye near vision; for R Post Dist: right eye distance vision; for R Post Near: right eye near vision; for Effect: duration of effect", "experimental": "Example 1 Effect of Aceclidine on Vision of Subjects Aged 47 to 67 Years\nAs aceclidine is an […], the clinical effectiveness may vary with different ratios. For the present studies a nearly exact 50:50 ratio of stereoisomers was measured as best determined by polarimetry.\nAfter administration of the composition all subjects experienced an improvement in their near vision that lasted from 7 to 12 hours."}, "eye [8]": {"system": "eye", "assay": "Effect of concentration of aceclidine and tropicamide, topical instillation (Example 2)", "type": "in vivo, human", "excerpt": "as §1"}, "[9]": {"details": "aceclidine 1.1% w/v plus 0.125% w/v tropicamide (subjects 4 and 5)"}, "[10]": {"details": "aceclidine 1.5% w/v, same vehicle, one subject"}}, "note": "Values joined by “and” are separate entries in the source; they are usually repeats but may differ in a detail not shown here. Equal entries are not always repeated. Where two headings read alike, the source gives them in different places.", "data": [{"molecule": "Polysorbate 80", "values": [{"measurement": "Redness 1 hr", "setting": "eye [1]", "value": 0.5}, {"measurement": "Stinging", "setting": "eye [1]", "value": 0.25}]}, {"molecule": "Polyoxyl 35 castor oil", "values": [{"measurement": "Redness 1 hr", "setting": "eye [1]", "value": 0.25}, {"measurement": "Stinging", "setting": "eye [1]", "value": 0}]}, {"molecule": "CC[C@@H]1C(=O)OC[C@@H]1Cc1cncn1C", "note": "[pilocarpine]", "values": [{"measurement": "distance blur", "setting": "eye [2]; pilocarpine instilled monocularly", "value": "2-3 lines"}, {"measurement": "pupil size", "setting": "eye [2]; upon instillation of 1.0% pilocarpine, most subjects", "value": "≥ 2.3", "unit": "mm"}]}, {"molecule": "Poloxamer 407", "values": [{"measurement": "Redness 1 hr", "setting": "eye [1]", "value": 1}, {"measurement": "Stinging", "setting": "eye [1]", "value": 0.5}]}, {"molecule": "CC(=O)OC1CN2CCC1CC2", "note": "(racemic) [Aceclidine, aceclidine]", "values": [{"measurement": "aceclidine remaining, 4° C., 1 month", "setting": "[3]", "value": 93, "unit": "%"}, {"measurement": "aceclidine remaining, 4° C., 2 months", "setting": "[3]", "value": 92, "unit": "%"}, {"measurement": "aceclidine remaining, 4° C., 3 months", "setting": "[3]", "value": 88, "unit": "%"}, {"measurement": "aceclidine remaining, 4° C., Initial", "setting": "[3]", "value": 100, "unit": "%"}, {"measurement": "aceclidine remaining, 25° C., 1 month", "setting": "[3]", "value": 92, "unit": "%"}, {"measurement": "aceclidine remaining, 25° C., 2 months", "setting": "[3]", "value": 75, "unit": "%"}, {"measurement": "aceclidine remaining, 25° C., 3 months", "setting": "[3]", "value": 50, "unit": "%"}, {"measurement": "aceclidine remaining, 25° C., Initial", "setting": "[3]; pH about 4.75", "value": 100, "unit": "%"}, {"measurement": "anterior chamber shallowing", "setting": "eye [4]; with further inclusion of a cycloplegic agent", "value": 0.04, "unit": "mm"}, {"measurement": "time period of near vision improvement", "setting": "[5]; 1.55% w/v aceclidine in saline solution", "value": 6, "unit": "h"}, {"measurement": "near vision", "setting": "[5]; aceclidine in carrier plus 0.042% w/v tropicamide", "value": 20.15}, {"measurement": "near vision", "setting": "[5]; aceclidine in carrier: 5.5% HPβCD, 0.75% CMC, 0.25% NaCl, 0.01% BAK", "value": "better than 20.20"}, {"measurement": "distance vision", "setting": "[5]; miotic in saline solution (1% w/v pilocarpine; 1.55% w/v aceclidine), baseline distance vision 20.20", "value": "without any effect on the baseline distance vision"}, {"measurement": "near vision", "setting": "[5]; miotic in saline solution (1% w/v pilocarpine; 1.55% w/v aceclidine), baseline near vision 20.100", "value": 20.40}, {"measurement": "near vision improvement", "setting": "eye [6]; aceclidine 1.25% w/v (not shown)", "value": "20.25-20.30"}, {"measurement": "duration of corrected near and distance vision to 20.20 or better", "setting": "eye [6]; aceclidine 1.55% w/v", "value": "at least 6 hours"}, {"measurement": "size of the pupil", "setting": "eye [6]; aceclidine 1.55% w/v, 30 minutes after topical instillation", "value": "about 1.63 mm"}, {"measurement": "duration (hrs)", "setting": "eye [6]; in vivo", "value": "about 7.5 hrs"}, {"measurement": "Comfort", "setting": "eye [7]; 1.35% w/v aceclidine", "value": "very high"}, {"measurement": "Depth of Focus distance", "setting": "eye [7]; 1.35% w/v aceclidine", "value": "excellent"}, {"measurement": "Depth of Focus near", "setting": "eye [7]; 1.35% w/v aceclidine", "value": "excellent"}, {"measurement": "Stinging on topical instillation", "setting": "eye [7]; 1.35% w/v aceclidine in the preferred embodiment of Example 6, lasting about 2-5 seconds", "value": "0.25 /4.0"}, {"measurement": "L Post Dist", "setting": "presbyopic subjects; [9]", "value": "20.15 and 20.20"}, {"measurement": "L Post Dist", "setting": "presbyopic subjects; [10]", "value": "20.20 (2×) and 20.30 and 20.25 (2×)"}, {"measurement": "L Post Near", "setting": "presbyopic subjects; [9]", "value": "20.15 and 20.25"}, {"measurement": "L Post Near", "setting": "presbyopic subjects; [10]", "value": "20.15 (3×) and 20.30 and 20.20"}, {"measurement": "R Post Dist", "setting": "presbyopic subjects; [9]", "value": "20.15 and 20.20"}, {"measurement": "R Post Dist", "setting": "presbyopic subjects; aceclidine 1.5% w/v in 5.5% HPβCD, 0.75% CMC, 0.25% NaCl, 0.01% BAK, one subject", "value": "20.20 (3×) and 20.25 (2×)"}, {"measurement": "R Post Near", "setting": "presbyopic subjects; [9]", "value": "20.20 and 20.25"}, {"measurement": "R Post Near", "setting": "presbyopic subjects; [10]", "value": "20.15 (3×) and 20.20 and 20.25"}, {"measurement": "Effect", "setting": "presbyopic subjects; [9]", "value": "12.00 h and 7.00 h"}, {"measurement": "Effect", "setting": "presbyopic subjects; [10]", "value": "8.00 h (4×) and 9.00 h"}, {"measurement": "Time (hr)", "setting": "eye [8]; duration of the effect", "value": "at least 10 hr"}, {"measurement": "Miosis (OU) (1 hr)", "setting": "eye [8]; pupil size, both eyes, 1 hour after topical instillation, baseline pupil 3 mm photopic, 5 mm mesopic", "value": 1.63, "unit": "mm"}]}, {"molecule": "Poloxamer 188", "values": [{"measurement": "Redness 1 hr", "setting": "eye [1]", "value": "0.25-2.5"}, {"measurement": "Stinging", "setting": "eye [1]", "value": "0-2"}]}, {"molecule": "tropicamide", "values": [{"measurement": "indoor night vision", "setting": "eye [4]; 0.035% w/v tropicamide in 1.55% w/v aceclidine composition", "value": "slight dimming"}, {"measurement": "dimming", "setting": "eye [4]; 0.040% w/v tropicamide in 1.53% or 1.45% w/v aceclidine composition", "value": "moderate dimming"}, {"measurement": "indoor night vision", "setting": "eye [4]; 0.042% w/v tropicamide in 1.55% w/v aceclidine composition", "value": "normal indoor night vision"}, {"measurement": "dimming", "setting": "eye [4]; 0.044% w/v tropicamide in 1.53% or 1.45% w/v aceclidine composition", "value": "dimming became almost undetectable"}, {"measurement": "brow ache", "setting": "eye [4]; tropicamide 0.01% w/v with aceclidine", "value": "slightly reduce brow ache"}, {"measurement": "brow ache", "setting": "eye [4]; tropicamide 0.030% w/v with aceclidine", "value": "further reduce brow ache"}, {"measurement": "brow ache", "setting": "eye [4]; tropicamide 0.04% to about 0.07% w/v with aceclidine", "value": "completely eliminate brow ache"}]}, {"molecule": "Tyloxapol", "values": [{"measurement": "Redness 1 hr", "setting": "eye [1]", "value": "0.25-2.5"}, {"measurement": "Stinging", "setting": "eye [1]", "value": "0-2"}]}, {"molecule": "Brc1c(NC2=NCCN2)ccc2nccnc12", "note": "[brimonidine]", "values": [{"measurement": "rebound redness, patients", "setting": "eye [2]; brimonidine 0.20% w/v (Alphagan®) twice daily", "value": 25, "unit": "%"}, {"measurement": "tachyphylaxis of pupil modulation, treated subjects", "setting": "eye [2]; brimonidine 0.20% w/v topically for night vision, within four weeks of use", "value": "~100", "unit": "%"}]}]}
